Results: article PMC11945486, “TAS1R2/TAS1R3 Single-Nucleotide Polymorphisms Affect Sweet Taste Receptor Activation by Sweeteners: The SWEET Project” (Nutrients, 2025)

Molecular target: T1, human TAS1R2-R317G (subunit alone) (Homo sapiens, UniProt Q8TE23, R317G)
T1 construct: expressed in transfected cells; host or cells: HEK293T-Gα16gust44
T1 sequence (Q8TE23 20-839 R317G): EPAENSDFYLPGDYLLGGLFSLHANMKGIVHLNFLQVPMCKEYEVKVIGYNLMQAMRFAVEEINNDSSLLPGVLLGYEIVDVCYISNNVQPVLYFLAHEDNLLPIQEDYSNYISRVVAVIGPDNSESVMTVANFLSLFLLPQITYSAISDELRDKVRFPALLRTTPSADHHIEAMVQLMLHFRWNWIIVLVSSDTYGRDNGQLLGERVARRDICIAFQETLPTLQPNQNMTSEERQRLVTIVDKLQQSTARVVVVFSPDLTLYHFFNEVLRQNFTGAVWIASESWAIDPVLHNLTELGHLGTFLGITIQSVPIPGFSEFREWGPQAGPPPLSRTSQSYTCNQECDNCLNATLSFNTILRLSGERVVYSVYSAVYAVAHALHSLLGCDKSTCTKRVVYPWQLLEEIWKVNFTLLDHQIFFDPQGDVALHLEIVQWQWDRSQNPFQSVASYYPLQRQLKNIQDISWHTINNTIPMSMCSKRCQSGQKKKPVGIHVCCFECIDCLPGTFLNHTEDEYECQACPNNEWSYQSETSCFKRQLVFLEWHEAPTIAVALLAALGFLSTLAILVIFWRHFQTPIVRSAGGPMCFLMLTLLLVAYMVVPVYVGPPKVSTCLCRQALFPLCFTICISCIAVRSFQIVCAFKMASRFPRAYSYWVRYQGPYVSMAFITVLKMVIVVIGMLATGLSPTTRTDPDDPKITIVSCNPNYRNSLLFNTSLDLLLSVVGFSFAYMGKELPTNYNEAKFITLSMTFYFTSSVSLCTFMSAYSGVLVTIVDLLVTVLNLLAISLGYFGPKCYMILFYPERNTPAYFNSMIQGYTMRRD
Test: Calcium mobilisation assay, TAS1R2-R317G subunit alone
Type: cell-based
Description: The coding sequences for TAS1R2 and TAS1R3 were commercially synthesised, and the human codon was optimised for expression in human cells. The coding sequences of human TAS1R2 and TAS1R3 were subcloned and inserted into the mammalian expression vectors pcDNA6/myc-HisA and pcDNA4/myc-HisA (Invitrogen; Thermo Fisher Scientific; Illkirch, France) between the EcoRI and NotI restriction sites, generating the plasmids pcDNA6-TAS1R2 and pcDNA4-TAS1R3, respectively. To increase protein expression in mammalian cells, an upstream start codon was used, which was a sequence called MAX, corresponding to the QBI SP163 element also described in pcDNA4-HisMax (Invitrogen; Thermo Fisher Scientific; Illkirch, France). To measure the expression level of the receptor by immunohistochemistry, we used the FLAG sequence ([…]) in the C-terminal position, which encodes the FLAG tag epitope. […]
The HEK293T cells were kindly provided by Jay P. Slack (Givaudan Flavors Corporation; Cincinnati, OH, USA). […] The fluorescence intensity was measured for 90 s (excitation 488 nm, emission 510 nm) in an automated fluorometric FlexStation®3 Multi-Mode microplate reader (Molecular Devices; San Jose, CA, USA). […] The Ca^2+ changes were expressed as fractional changes in fluorescent light intensity: ΔF/F = (F − F0)/F0, where F was the fluorescent light intensity at each point, and F0 was the value of emitted fluorescent light prior to stimulus application. To calculate dose–response relationships, the changes in fluorescence upon stimulus application were averaged, mock-subtracted and baseline-corrected. […] The half-maximal effective concentrations (EC50 values) and maximal signal amplitudes were calculated using SigmaPlot software (version 15.0) (Systat Software; San Jose, CA, USA).
For in vitro calcium mobilisation assay performed on hTAS1R2-SNPs, hTAS1R3-SNPs and mTAS1R3-I60T, 6 to 7 concentrations were tested for each sweet compound, plus buffer alone. All concentration–receptor combinations were measured in duplicate, and each experiment was repeated at least 4 times (8 wells/concentration). […]

EC50: 225 ± 31.9 µM
R1 = Variant EC50/WT EC50: 2.5
Max ΔF/F0 (maximal signal amplitude): 0.17 ± 0.01
Compound: C=C(C)[C@@H]1CC=C(/C=N/O)CC1 [Perillartine, perillartine]
